ChEMBL document CHEMBL6134821, “Design, synthesis, and biological evaluation of novel BTK-targeting proteolysis targeting chimeras (PROTACs) with enhanced pharmacokinetic properties” (Eur J Med Chem, 2025)
Calls of active or inactive are those of the source. The rule behind the calls is not given here.

Columns and labels:
[1] = Toxicity in mouse at 2 mg/kg, iv measured for 0.083 to 24 hrs by LC-MS/MS analysis; type: organism-based; conditions: in vivo, time 0.083-24 hrs
[2] = Drug concentration in plasma of mouse at 30 mg/kg, ip measured after 24 hrs by LC-MS/MS analysis; type: ADME, organism-based
[3] = AUC (0 to t) in mouse at 2 mg/kg, iv measured for 0.083 to 24 hrs by LC-MS/MS analysis; type: ADME, organism-based; conditions: in vivo, time 0.083-24 hrs
[4] = Cmax in mouse at 30 mg/kg, ip measured after 0.083 hrs by LC-MS/MS analysis; type: ADME, organism-based; conditions: in vivo
[5] = target: T1, Protein cereblon/Tyrosine-protein kinase BTK (Homo sapiens, UniProt Q06187+Q96SW2); test: PROTAC activity at CRBN/BTK in human JeKo-1 cells assessed as BTK degradation at 10 nM incubated for 24 hrs by Western blot analysis relative to control; type: cell-based
Target sequence in this assay (Q06187 2-659 limits assumed): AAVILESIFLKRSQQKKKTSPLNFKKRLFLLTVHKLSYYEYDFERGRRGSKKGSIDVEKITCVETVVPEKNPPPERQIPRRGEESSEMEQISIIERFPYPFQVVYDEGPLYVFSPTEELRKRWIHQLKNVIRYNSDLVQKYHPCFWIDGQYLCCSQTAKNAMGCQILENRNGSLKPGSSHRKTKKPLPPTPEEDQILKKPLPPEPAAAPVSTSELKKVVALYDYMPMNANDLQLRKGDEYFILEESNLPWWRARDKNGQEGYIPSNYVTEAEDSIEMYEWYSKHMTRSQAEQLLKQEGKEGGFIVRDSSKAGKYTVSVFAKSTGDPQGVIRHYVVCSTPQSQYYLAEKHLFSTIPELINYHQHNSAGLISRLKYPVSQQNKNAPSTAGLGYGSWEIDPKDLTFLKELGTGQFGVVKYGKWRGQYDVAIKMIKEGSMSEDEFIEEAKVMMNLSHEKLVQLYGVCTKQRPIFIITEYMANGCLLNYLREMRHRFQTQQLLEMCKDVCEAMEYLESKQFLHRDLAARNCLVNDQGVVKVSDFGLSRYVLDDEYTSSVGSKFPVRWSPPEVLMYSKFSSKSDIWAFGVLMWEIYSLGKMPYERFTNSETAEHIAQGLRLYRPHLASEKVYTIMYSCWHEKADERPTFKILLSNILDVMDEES
Target sequence in this assay (Q96SW2 whole entry partner): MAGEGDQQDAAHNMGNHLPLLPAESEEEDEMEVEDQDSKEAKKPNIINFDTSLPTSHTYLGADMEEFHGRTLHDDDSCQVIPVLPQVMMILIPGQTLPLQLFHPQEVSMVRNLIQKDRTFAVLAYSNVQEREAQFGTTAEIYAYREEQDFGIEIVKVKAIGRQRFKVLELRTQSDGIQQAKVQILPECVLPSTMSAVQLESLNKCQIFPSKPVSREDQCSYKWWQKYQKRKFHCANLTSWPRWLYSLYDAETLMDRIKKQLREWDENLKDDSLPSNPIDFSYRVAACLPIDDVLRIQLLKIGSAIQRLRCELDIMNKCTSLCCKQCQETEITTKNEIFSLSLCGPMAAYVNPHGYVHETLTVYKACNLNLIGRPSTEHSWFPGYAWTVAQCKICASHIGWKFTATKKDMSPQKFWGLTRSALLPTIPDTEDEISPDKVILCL

[6] = target: T1, Protein cereblon/Tyrosine-protein kinase BTK; test: PROTAC activity at CRBN/BTK in human JeKo-1 cells assessed as BTK degradation at 30 nM incubated for 24 hrs by Western blot analysis relative to control; type: cell-based
Target sequence in this assay (Q06187 2-659 limits assumed): as the sequence (Q06187 2-659 limits assumed) above
Target sequence in this assay (Q96SW2 whole entry partner): as the sequence (Q96SW2 whole entry partner) above

[7] = target: T1, Protein cereblon/Tyrosine-protein kinase BTK; test: PROTAC activity at CRBN/BTK in human JeKo-1 cells assessed as BTK degradation at 100 nM incubated for 24 hrs by Western blot analysis relative to control; type: cell-based
Target sequence in this assay (Q06187 2-659 limits assumed): as the sequence (Q06187 2-659 limits assumed) above
Target sequence in this assay (Q96SW2 whole entry partner): as the sequence (Q96SW2 whole entry partner) above

[8] = target: T1, Protein cereblon/Tyrosine-protein kinase BTK; test: PROTAC activity at CRBN/BTK in human JeKo-1 cells assessed as BTK degradation incubated for 24 hrs by Western blot analysis; type: cell-based
[9] = Microsomal stability in human liver microsomes assessed as half life measured up to 60 mins in presence of NADPH by LC-MS/MS analysis; type: ADME, Microsome
[10] = Microsomal stability in human liver microsomes assessed as intrinsic clearance in microsomes measured up to 60 mins in presence of NADPH by LC-MS/MS analysis; type: ADME, Microsome; conditions: read-out: CLH
[11] = Microsomal stability in human liver microsomes assessed as intrinsic clearance in liver measured up to 60 mins in presence of NADPH by LC-MS/MS analysis; type: ADME, Microsome; conditions: read-out: CLH
[12] = Microsomal stability in human liver microsomes assessed as compound remaining measured up to 60 mins in presence of NADPH by LC-MS/MS analysis; type: ADME, Microsome; conditions: read-out: Stability
[13] = Microsomal stability in human liver microsomes assessed as compound remaining measured up to 60 mins by LC-MS/MS analysis; type: ADME, Microsome; conditions: read-out: Stability
[14] = target: T1, Protein cereblon/Tyrosine-protein kinase BTK; test: PROTAC activity at CRBN/BTK in human JeKo-1 cells assessed as hook effect up to 1 uM incubated for 24 hrs by Western blot analysis; type: cell-based
Target sequence in this assay (Q06187 2-659 limits assumed): as the sequence (Q06187 2-659 limits assumed) above
Target sequence in this assay (Q96SW2 whole entry partner): as the sequence (Q96SW2 whole entry partner) above

[15] = target: T1, Protein cereblon/Tyrosine-protein kinase BTK; test: PROTAC activity at CRBN/BTK in human JeKo-1 cells assessed as BTK degradation at 100 nM by Western blot analysis; type: cell-based; conditions: time 1-24 hrs
Target sequence in this assay (Q06187 2-659 limits assumed): as the sequence (Q06187 2-659 limits assumed) above
Target sequence in this assay (Q96SW2 whole entry partner): as the sequence (Q96SW2 whole entry partner) above

[16] = target: T1, Protein cereblon/Tyrosine-protein kinase BTK; test: PROTAC activity at CRBN/BTK in human JeKo-1 cells assessed as BTK degradation at 100 nM measured after 4 hrs by Western blot analysis relative to control; type: cell-based
Target sequence in this assay (Q06187 2-659 limits assumed): as the sequence (Q06187 2-659 limits assumed) above
Target sequence in this assay (Q96SW2 whole entry partner): as the sequence (Q96SW2 whole entry partner) above

[17] = target: T1, Protein cereblon/Tyrosine-protein kinase BTK; test: PROTAC activity at CRBN/BTK in human TMD8 cells assessed as BTK degradation measured after 24 hrs by Western blot analysis; type: cell-based
[18] = system: Protein cereblon/Tyrosine-protein kinase BTK (Homo sapiens), Q06187+Q96SW2 [C481S]; test: (§1) PROTAC activity at CRBN/BTK C481S mutant (unknown origin) expressed in human TMD8 cells assessed as BTK degradation measured after 24 hrs by Western blot analysis; type: cell-based; conditions: dose 0.1-1000 nM
[19] = target: Protein cereblon/Tyrosine-protein kinase BTK (Homo sapiens, UniProt Q06187+Q96SW2, C481S); test: as §1; type: cell-based
[20] = target: T1, Protein cereblon/Tyrosine-protein kinase BTK; test: PROTAC activity at CRBN/BTK in human JeKo-1 cells assessed as BTK degradation at 10 nM incubated for 24 hrs in presence of MLN-4924 by Western blot analysis; type: cell-based
[21] = target: T1, Protein cereblon/Tyrosine-protein kinase BTK; test: PROTAC activity at CRBN/BTK in human JeKo-1 cells assessed as BTK degradation at 10 nM incubated for 24 hrs in presence of bortezomib by Western blot analysis; type: cell-based
[22] = target: T1, Protein cereblon/Tyrosine-protein kinase BTK; test: PROTAC activity at CRBN/BTK in human JeKo-1 cells assessed as BTK degradation incubated for 8 hrs by Western blot analysis; type: cell-based; conditions: dose 0.1-1000 nM
JeKo-1 [23] = test: Effect on IKZF3 level in human JeKo-1 cells at 0.1 to 1000 nM incubated for 8 hrs by Western blot analysis; type: functional, cell-based; conditions: dose 0.1-1000 nM
JeKo-1 [24] = test: Effect on GSPT1 level in human JeKo-1 cells at 0.1 to 1000 nM incubated for 8 hrs by Western blot analysis; type: functional, cell-based; conditions: dose 0.1-1000 nM
JeKo-1 [25] = test: Effect on IKZF1 level in human JeKo-1 cells at 0.1 to 1000 nM incubated for 8 hrs by Western blot analysis; type: functional, cell-based; conditions: dose 0.1-1000 nM
[26] = target: T1, Protein cereblon/Tyrosine-protein kinase BTK; test: PROTAC activity at CRBN/BTK in human JeKo-1 cells assessed as BTK degradation at 100 nM incubated for 4 hrs by Label-free MS proteomics analysis; type: cell-based
JeKo-1 [27] = test: Downregulation of CSK level in human JeKo-1 cells at 100 nM incubated for 4 hrs by Label-free MS proteomics analysis; type: functional, cell-based
JeKo-1 [28] = test: Downregulation of BLK level in human JeKo-1 cells at 100 nM incubated for 4 hrs by Label-free MS proteomics analysis; type: functional, cell-based
[29] = Cytotoxicity against human TMD8 cells harboring wild-type BTK assessed as inhibition of cell viability incubated for 5 days by CCK8 assay; type: functional, cell-based; conditions: TMD8, 120 h
[30] = Cytotoxicity against human TMD8 cells harboring BTK C481S mutant assessed as inhibition of cell viability incubated for 5 days by CCK8 assay; type: functional, cell-based; conditions: TMD8, 120 h
[31] = Toxicity in mouse at 30 mg/kg, ip measured for 0.083 to 24 hrs by LC-MS/MS analysis; type: organism-based; conditions: in vivo, time 0.083-24 hrs

Sequence of Protein cereblon/Tyrosine-protein kinase BTK (Homo sapiens, UniProt Q06187+Q96SW2, C481S) (Q06187 whole entry, looked up, stated change not applied): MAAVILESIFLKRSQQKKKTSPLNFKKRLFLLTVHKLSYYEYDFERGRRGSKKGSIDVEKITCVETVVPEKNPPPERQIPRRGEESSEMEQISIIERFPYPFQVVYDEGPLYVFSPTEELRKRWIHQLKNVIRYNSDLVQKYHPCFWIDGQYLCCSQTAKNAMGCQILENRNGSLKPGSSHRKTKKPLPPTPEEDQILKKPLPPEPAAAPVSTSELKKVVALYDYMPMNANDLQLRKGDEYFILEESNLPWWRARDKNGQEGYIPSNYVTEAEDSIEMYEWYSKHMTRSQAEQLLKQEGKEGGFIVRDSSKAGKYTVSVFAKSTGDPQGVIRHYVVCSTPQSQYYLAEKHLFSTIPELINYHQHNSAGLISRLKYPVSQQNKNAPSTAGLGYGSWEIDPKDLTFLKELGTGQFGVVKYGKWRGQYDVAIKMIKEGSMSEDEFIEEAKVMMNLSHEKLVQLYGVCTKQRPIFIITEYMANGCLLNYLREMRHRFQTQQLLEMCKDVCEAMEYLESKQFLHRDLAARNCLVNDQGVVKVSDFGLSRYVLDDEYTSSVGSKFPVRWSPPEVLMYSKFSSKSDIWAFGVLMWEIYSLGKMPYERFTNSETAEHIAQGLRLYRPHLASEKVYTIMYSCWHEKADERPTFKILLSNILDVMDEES
Sequence of Protein cereblon/Tyrosine-protein kinase BTK (Homo sapiens, UniProt Q06187+Q96SW2, C481S) (Q96SW2 whole entry, looked up, stated change not applied): as the sequence (Q96SW2 whole entry partner) above

Compound: O=C1CCC(c2ccc(N3CCC(CCN4CCC(CC(=O)N[C@H]5CC[C@H](Nc6ncnc7[nH]cc(C(=O)c8ccc(Oc9ccccc9)cc8)c67)C5)CC4)CC3)nc2)C(=O)N1 (stereo partly drawn)
- Activity [1]: Non-toxic
- concentration at 24 h [2]: > 0.1 µM
- AUC(0-t) [3]: 1730 ng·h/mL
- Cmax [4]: 3.67 µM
- Activity [5]: 89%
- Activity [6]: 94%
- Activity [7]: 91%
- DC50 [8]: 2.9 nM
- Activity ([8]; dose 0.01-1000 nM): Dose-dependent-effect
- half-life [9]: > 2.42 h
- microsomal CLint [10]: < 9.6 µL/min/mg
- CLint scaled [11]: < 8.6 mL/min/kg
- remaining at 1 h [12]: 106%
- remaining at 1 h [13]: 79.3%
- Activity [14]: inactive
- Activity [15]: Time-dependent-effect; Compound Exhibited Significant Reduction At 1 Hr
- Activity [16]: 100%
- DC50 [17]: 2.8 nM
- Activity ([17]; dose 0.1-1000 nM): Dose-dependent-effect
- Activity [18]: Dose-dependent-effect
- DC50 [19]: 4.3 nM
- Activity [20]: inactive
- Activity [21]: inactive
- Activity [22]: Dose-dependent-effect
- Activity (JeKo-1 [23]): inactive
- Activity (JeKo-1 [24]): inactive
- Activity (JeKo-1 [25]): inactive
- Activity [26]: Active
- Activity (JeKo-1 [27]): Active
- Activity (JeKo-1 [28]): Active
- IC50 [29]: 9.9 nM
- IC50 [30]: 18.2 nM
- Activity [31]: Non-toxic
